From patent US11807693B2 (priority 2014, dated 2023)
Where two headings read alike, the source gives them in different places. Values belong to the compound of their own block, whether it stands above or below them. Starred links: 1 amine or outer side, 2 acyl side, 3 side chain; linkers in the order of their positions; H or OH if unused. Non-standard residues stand in square brackets, D forms with d. Residues, ends and D or L forms follow the SMILES beside them. *: point of attachment. dBip = N[C@H](Cc1ccc(-c2ccccc2)cc1)C(=O)O; Oic = O=C(O)[C@@H]1C[C@@H]2CCCC[C@@H]2N1; Phe(4-Cl) = N[C@@H](Cc1ccc(Cl)cc1)C(=O)O; Phe(4-I) = N[C@@H](Cc1ccc(I)cc1)C(=O)O; γGlu = O=C(O)[C@H](CCC(=O)[*:2])N[*:1]; NMeR = CN[C@@H](CCCNC(=N)N)C(=O)O; Tridecanoyl = CCCCCCCCCCCCC(=O)*; hArg = N=C(N)NCCCC[C@H](N)C(=O)O; Cha = N[C@@H](CC1CCCCC1)C(=O)O; NMeL = CN[C@@H](CC(C)C)C(=O)O; Nle = CCCC[C@H](N)C(=O)O; Deg = CCC(N)(CC)C(=O)O; AEEA = NCCOCCOCC(=O)O; Aib = CC(C)(N)C(=O)O

Experiments:
[1] = target: T1, rat APJ receptor (Rattus norvegicus, UniProt Q9JHG3); test: [35S] GTPγS assay, rat APJ receptor; format: biochemical
T1 construct: expressed in transfected cells
T1 sequence (Q9JHG3 1-377): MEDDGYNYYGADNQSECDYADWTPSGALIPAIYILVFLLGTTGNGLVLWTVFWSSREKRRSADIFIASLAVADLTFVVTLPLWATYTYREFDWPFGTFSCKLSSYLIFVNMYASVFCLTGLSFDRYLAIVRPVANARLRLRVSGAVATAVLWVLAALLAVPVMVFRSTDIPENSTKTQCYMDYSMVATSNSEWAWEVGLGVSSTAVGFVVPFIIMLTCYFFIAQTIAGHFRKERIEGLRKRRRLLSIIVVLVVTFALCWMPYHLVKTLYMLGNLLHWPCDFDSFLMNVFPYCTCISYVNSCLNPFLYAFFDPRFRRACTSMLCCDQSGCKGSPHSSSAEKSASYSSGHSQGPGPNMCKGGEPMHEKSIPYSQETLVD
Method: The membranes were incubated with modified peptides in the assay buffer. […] Bound [^35S] GTPγS was separated from free radiolabel by filtration. The filter bound radioactivity was determined by liquid scintillation counting.

[2] = In vitro stability in rat liver homogenate; format: in vitro ADME; conditions: tissue homogenate
Method: (§1) Apelin peptides were spiked into rat plasma, liver homogenate, and kidney homogenate, which were obtained from commercial sources, to a final concentration of 5 μM. The samples were then incubated at 37° C. over a period of 4 hr. […] In a typical experiment, an aliquot of 100 μL of sample was taken from the incubation vial, followed by addition of 300 μL of MeOH containing internal standard. The quenched sample was centrifuged at 5500 g for 15 min after 15 min vortex in room temperature. The supernatant was then analyzed by high resolution LC-MS. […] In vitro plasma, […], and kidney stability results are shown below in Table 14.

[3] = In vitro stability in rat plasma; format: in vitro ADME
Method: as §1

[4] = Table 16, read-out: EC50 Rat APJ Receptor
[5] = rat APJ receptor, read-out: EC50 Rat APJ Receptor

- EC50 [1, 4]: 3.79 nM
Structure (SMILES): CCCCCCCCCCCCC(=O)N[C@@H](CCC(=O)NCCOCCOCC(=O)NCCOCCOCC(=O)N[C@@H](CCC(N)=O)C(=O)N[C@@H](CCCNC(=N)N)C(=O)N1CCC[C@H]1C(=O)N(C)[C@@H](CCCNC(=N)N)C(=O)N[C@@H](CC1CCCCC1)C(=O)N[C@@H](CO)C(=O)N[C@@H](Cc1c[nH]cn1)C(=O)N[C@@H](CCCCN)C(=O)NCC(=O)NC(C)(C)C(=O)N[C@@H](CCCC)C(=O)N1CCC[C@H]1C(=O)N[C@@H](Cc1ccc(Cl)cc1)C(=O)O)C(=O)O [compound 414] ({Tridecanoyl-γGlu-AEEA-AEEA}-QRP[NMeR][Cha]SHKG[Aib][Nle]P[Phe(4-Cl)]-OH)

- EC50 [1, 5]: 12.5 nM
Structure (SMILES): CCCCCCCCCCCCC(=O)N[C@@H](CCC(=O)NCCOCCOCC(=O)NCCOCCOCC(=O)NC(CC)(CC)C(=O)N[C@@H](CCCCNC(=N)N)C(=O)N1CCC[C@H]1C(=O)N[C@H](CCCNC(=N)N)C(=O)N[C@@H](CC1CCCCC1)C(=O)N[C@@H](CO)C(=O)N[C@@H](Cc1c[nH]cn1)C(=O)N[C@@H](CCCCN)C(=O)NCC(=O)N1[C@H](C(=O)N[C@@H](CCCC)C(=O)N2CCC[C@H]2C(=O)N[C@@H](Cc2ccc(Cl)cc2)C(=O)O)C[C@@H]2CCCC[C@@H]21)C(=O)O [compound 558] ({Tridecanoyl-γGlu-AEEA-AEEA}-[Deg][hArg]P[dR][Cha]SHKG[Oic][Nle]P[Phe(4-Cl)]-OH)

- EC50 [1, 5]: 44.7 nM
Structure (SMILES): CCCCCCCCCCCCC(=O)N[C@@H](CCC(=O)NCCOCCOCC(=O)NCCOCCOCC(=O)N[C@@H](CCCCNC(=N)N)C(=O)N[C@H](CCCNC(=N)N)C(=O)N[C@@H](CCC(N)=O)C(=O)N[C@@H](CCCC)C(=O)N1CCC[C@H]1C(=O)N[C@H](CCCNC(=N)N)C(=O)N(C)[C@@H](CC(C)C)C(=O)N[C@@H](C)C(=O)N[C@@H](C)C(=O)N[C@@H](CCCCN)C(=O)NCC(=O)N1[C@H](C(=O)N[C@@H](Cc2ccc(I)cc2)C(=O)N2CCC[C@H]2C(=O)N[C@H](Cc2ccc(-c3ccccc3)cc2)C(=O)O)C[C@@H]2CCCC[C@@H]21)C(=O)O [compound 334] ({Tridecanoyl-γGlu-AEEA-AEEA}-[hArg][dR]Q[Nle]P[dR][NMeL]AAKG[Oic][Phe(4-I)]P[dBip]-OH)

- EC50 ([1]; read-out: EC50 Rat APJ Receptor): 1.8 nM
Structure (SMILES): CC(=O)N[C@@H](CCCCNC(=N)N)C(=O)N[C@@H](CCCCNC(=N)N)C(=O)N[C@@H](CCC(N)=O)C(=O)N[C@@H](CCCCNC(=N)N)C(=O)N1[C@H](C(=O)N[C@H](CCCNC(=N)N)C(=O)N(C)[C@@H](CC(C)C)C(=O)N[C@@H](CO)C(=O)N[C@@H](Cc2c[nH]cn2)C(=O)N[C@@H](CCCCN)C(=O)NCC(=O)N2[C@H](C(=O)N[C@@H](Cc3ccc(I)cc3)C(=O)N3CCC[C@H]3C(=O)N[C@H](Cc3ccc(-c4ccccc4)cc3)C(=O)O)C[C@@H]3CCCC[C@@H]32)C[C@@H]2CCCC[C@@H]21 [compound 21] (Ac-[hArg][hArg]Q[hArg][Oic][dR][NMeL]SHKG[Oic][Phe(4-I)]P[dBip]-OH)

- EC50 [1, 4]: 0.23 nM
Structure (SMILES): CCCCCCCCCCCCC(=O)N[C@@H](CCC(=O)NCCOCCOCC(=O)NCCOCCOCC(=O)N[C@@H](CCC(N)=O)C(=O)N[C@@H](CCCNC(=N)N)C(=O)N1CCC[C@H]1C(=O)N(C)[C@@H](CCCNC(=N)N)C(=O)N(C)[C@@H](CC(C)C)C(=O)N[C@@H](CO)C(=O)N[C@@H](Cc1c[nH]cn1)C(=O)N[C@@H](CCCCN)C(=O)NCC(=O)N1CCC[C@H]1C(=O)N[C@@H](CCCC)C(=O)N1CCC[C@H]1C(=O)N[C@@H](Cc1ccc(Cl)cc1)C(=O)O)C(=O)O [compound 459]

- remaining at 4 h, 5 μM [2]: < 1%
- remaining at 4 h, 5 μM [3]: > 90%
Structure (SMILES): CCCCCCCCCCCCC(=O)N[C@@H](CCC(=O)NCCOCCOCC(=O)NCCOCCOCC(=O)N[C@H](CCC(N)=O)C(=O)N[C@@H](CCCNC(=N)N)C(=O)N1CCC[C@H]1C(=O)N(C)[C@@H](CCCNC(=N)N)C(=O)N[C@@](C)(CC(C)C)C(=O)N[C@@H](CO)C(=O)N[C@@H](Cc1c[nH]cn1)C(=O)N[C@@H](CCCCN)C(=O)NCC(=O)N1CCCC[C@H]1C(=O)N[C@@H](CCCC)C(=O)N1CCC[C@@]1(C)C(=O)N[C@@H](Cc1ccc(Cl)cc1)C(=O)O)C(=O)O [compound 555]

- remaining at 4 h, 5 μM [2]: < 1%
- remaining at 4 h, 5 μM [3]: 87%
Structure (SMILES): CCCCCCCCCCCCC(=O)N[C@@H](CCC(=O)NCCOCCOCC(=O)NCCOCCOCC(=O)N[C@@H](CCC(N)=O)C(=O)N[C@@H](CCCNC(=N)N)C(=O)N1CCC[C@H]1C(=O)N(C)[C@@H](CCCNC(=N)N)C(=O)N[C@@H](CC(C)C)C(=O)N[C@@H](CO)C(=O)N[C@@H](Cc1c[nH]cn1)C(=O)N[C@@H](CCCCN)C(=O)NCC(=O)N1CCC[C@H]1C(=O)N[C@@H](CCCC)C(=O)N[C@@H](Cc1ccc(Cl)cc1)C(=O)O)C(=O)O [compound 402] ({Tridecanoyl-γGlu-AEEA-AEEA}-QRP[NMeR]LSHKGP[Nle][Phe(4-Cl)]-OH)
